# In patent publication US10538555B2, “Macrocyclic inhibitors of the PD-1/PD-L1 and CD80(B7-1)/PD-L1 protein/protein interactions” (BRISTOL-MYERS SQUIBB COMPANY, priority 2014, dated 2020):
# pIC50: −log10 of the molar value. *1 amine or outer side, *2 acyl side, *3 side chain or, on linkers, in order; H or OH if unused. Where a SMILES comes first, the peptide text is derived from it. Bridges are numbered along the chain shown (N, C = ends). [ ]: non-standard residue; d: D form. The star is where a group is joined. ξ: configuration not given here. Trp(1-CH2COOH) = N[C@@H](Cc1cn(CC(=O)O)c2ccccc12)C(=O)O; Phe(3,4,5-F3) = N[C@@H](Cc1cc(F)c(F)c(F)c1)C(=O)O; Phe(3,4-F2) = N[C@@H](Cc1ccc(F)c(F)c1)C(=O)O; Pro(trans-4-F) = O=C(O)[C@@H]1C[C@@H](F)CN1; NMePhe(4-F) = CN[C@@H](Cc1ccc(F)cc1)C(=O)O; Phe(4-F) = N[C@@H](Cc1ccc(F)cc1)C(=O)O; d(cisHyp) = O=C(O)[C@H]1C[C@@H](O)CN1; Bta = N[C@@H](Cc1csc2ccccc12)C(=O)O; Hyp = O=C(O)[C@@H]1C[C@@H](O)CN1; NMeF = CN[C@@H](Cc1ccccc1)C(=O)O; X1 = O=C([C@H]1COCCN1[*:1])[*:2]; dNMeF = CN[C@H](Cc1ccccc1)C(=O)O; NMeE = CN[C@@H](CCC(=O)O)C(=O)O; dHyp = O=C(O)[C@H]1C[C@H](O)CN1; NMeL = CN[C@@H](CC(C)C)C(=O)O; NMehSer = CN[C@@H](CCO)C(=O)O; NMeNle = CCCC[C@H](NC)C(=O)O; dPip = O=C(O)[C@H]1CCCCN1; hSer = N[C@@H](CCO)C(=O)O; NMeA = CN[C@@H](C)C(=O)O; Orn = NCCC[C@H](N)C(=O)O; Dab = NCC[C@H](N)C(=O)O; Dap = NC[C@H](N)C(=O)O; Propionyl = CCC(=O)*; ξP = O=C(O)C1CCCN1; ξC = NC(CS)C(=O)O
# Biological target: T1, Human PD-L1/PD-1 (Homo sapiens, UniProt Q9NZQ7)
# T1 construct: TVMV protease cleavage site (C); made in house; host or cells: HEK293T cells
# Assay: HTRF Human PD-L1/PD-1 binding assay (PD-1-Ig/PD-L1-His)
# Settings: PD-L1-His 10 nM, PD-1-Ig 20 nM; class symbol; read-out: HTRF Human PD-L1/PD-1 Binding Assay IC50 Range
# Procedure, shortened: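 Truncated Fc-fused human PD-1 (aa 25-167) at 20 nM and His-tagged PD-L1 (aa 18-239) at 10 nM final are used, with peptides preincubated 15 min with PD-L1. Detection uses europium-cryptate anti-Ig and APC anti-His antibodies; 665/620 nm ratio.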
# T1 sequence (Q9NZQ7 with tags, fused parts or gaps): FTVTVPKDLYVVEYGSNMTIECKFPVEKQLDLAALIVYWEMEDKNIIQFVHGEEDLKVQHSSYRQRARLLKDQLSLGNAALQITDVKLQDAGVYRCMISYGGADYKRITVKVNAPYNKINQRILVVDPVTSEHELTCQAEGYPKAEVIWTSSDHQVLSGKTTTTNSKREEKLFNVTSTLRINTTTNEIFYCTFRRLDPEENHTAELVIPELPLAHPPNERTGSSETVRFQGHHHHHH
row,SMILES,pIC50
1,"CCCC[C@H]1C(=O)N(C)[C@@H](CCCC)C(=O)N[C@@H](CCCNC(=N)N)C(=O)N[C@H](C(=O)NCC(N)=O)CSCC(=O)N[C@@H](Cc2ccc(F)c(F)c2)C(=O)N(C)[C@@H](C)C(=O)N[C@@H](CC(N)=O)C(=O)N2CCC[C@H]2C(=O)N[C@@H](CN)C(=O)N[C@@H](CC(C)C)C(=O)N2C[C@H](O)C[C@H]2C(=O)N[C@@H](Cc2c[nH]c3ccccc23)C(=O)N[C@@H](CO)C(=O)N[C@@H](Cc2c[nH]c3ccccc23)C(=O)N1C [Example 7068] ({CH2CO}-[Phe(3,4-F2)][NMeA]NP[Dap]L[Hyp]WSW[NMeNle][NMeNle]RCG-NH2; thioether N-14)",7.00 to 8.00
2,CCCC[C@H]1C(=O)N(C)[C@@H](CCCC)C(=O)N[C@@H](CCC(=O)O)C(=O)N[C@H](C(=O)NCC(N)=O)CSCC(=O)N[C@@H](Cc2ccc(O)cc2)C(=O)N(C)[C@@H](C)C(=O)N[C@@H](CC(N)=O)C(=O)N2CCCC2C(=O)N[C@@H](Cc2cnc[nH]2)C(=O)N[C@@H](CCC(N)=O)C(=O)N2C[C@H](O)C[C@H]2C(=O)N[C@@H](Cc2c[nH]c3ccccc23)C(=O)N[C@@H](CCN)C(=O)N[C@@H](Cc2cn(CC(=O)O)c3ccccc23)C(=O)N1C (stereo partly drawn) [Example 6288] ({CH2CO}-Y[NMeA]N[ξP]HQ[Hyp]W[Dab][Trp(1-CH2COOH)][NMeNle][NMeNle]ECG-NH2; thioether N-14),8.00 to 9.00
3,CCCC[C@H]1C(=O)N(C)[C@@H](CCCC)C(=O)N[C@@H](CCCNC(=O)CC)C(=O)N[C@H](C(=O)NCC(N)=O)CSCC(=O)N[C@@H](Cc2ccc(OC)cc2)C(=O)N(C)[C@@H](C)C(=O)N[C@@H](CC(N)=O)C(=O)N2CCC[C@H]2C(=O)N[C@@H](CC(N)=O)C(=O)N[C@@H](CC(C)C)C(=O)N2C[C@H](F)C[C@H]2C(=O)N[C@@H](Cc2c[nH]c3ccccc23)C(=O)N[C@@H](C)C(=O)N[C@@H](Cc2c[nH]c3ccccc23)C(=O)N1C [Example 7083] ({CH2CO}-Y(Me)[NMeA]NPNL[Pro(trans-4-F)]WAW[NMeNle][NMeNle][Orn](Propionyl)CG-NH2; thioether N-14),7.00 to 8.00
4,CCCC[C@H]1C(=O)N(C)[C@@H](C)C(=O)N[C@@H](CCCNC(=N)N)C(=O)NC(C(=O)N[C@@H](CO)C(N)=O)CSCC(=O)N[C@@H](Cc2ccc(O)cc2)C(=O)N(C)[C@@H](C)C(=O)N[C@@H](CC(N)=O)C(=O)N2CCC[C@H]2C(=O)N[C@@H](CO)C(=O)N[C@H](CC(C)C)C(=O)N2CCC[C@H]2C(=O)N[C@@H](Cc2c[nH]c3ccccc23)C(=O)N[C@@H](CO)C(=O)N[C@@H](Cc2c[nH]c3ccccc23)C(=O)N1C (stereo partly drawn) [Example 9121] ({CH2CO}-Y[NMeA]NPS[dL]PWSW[NMeNle][NMeA]R[ξC]S-NH2; thioether N-14),7.00 to 8.00
5,CCCC[C@H]1C(=O)N(C)[C@@H](CCCC)C(=O)N[C@@H](C)C(=O)N[C@H](C(=O)NCC(N)=O)CSCC(=O)N[C@@H](Cc2ccc(O)cc2)C(=O)N(C)[C@@H](C)C(=O)N[C@@H](CC(N)=O)C(=O)N2CCC[C@H]2C(=O)N[C@@H](Cc2cnc[nH]2)C(=O)N[C@@H](CCN)C(=O)N2C[C@H](O)C[C@H]2C(=O)N[C@@H](Cc2c[nH]c3ccccc23)C(=O)N[C@@H](CO)C(=O)N[C@@H](Cc2c[nH]c3ccccc23)C(=O)N1C [Example 1245],7.00 to 8.00
6,CCCC[C@H]1C(=O)N(C)[C@@H](CCCC)C(=O)N[C@@H](CCCNC(=N)N)C(=O)NC(C(=O)NCC(N)=O)CSCC(=O)N[C@@H](Cc2ccc(O)cc2)C(=O)N(C)[C@@H](C)C(=O)N[C@@H](Cc2cnc[nH]2)C(=O)N2CCC[C@H]2C(=O)N[C@@H](CC(N)=O)C(=O)N[C@@H](CC(C)C)C(=O)N2CCC[C@H]2C(=O)N[C@@H](Cc2c[nH]c3ccccc23)C(=O)N[C@@H](CO)C(=O)N[C@@H](Cc2csc3ccccc23)C(=O)N1C (stereo partly drawn) [Example 9145] ({CH2CO}-Y[NMeA]HPNLPWS[Bta][NMeNle][NMeNle]R[ξC]G-NH2; thioether N-14),8.00 to 9.00
7,CCCC[C@H]1C(=O)N(C)[C@@H](CCCC)C(=O)N[C@@H](CC(C)C)C(=O)N[C@H](C(=O)NCC(N)=O)CSCC(=O)N[C@@H](Cc2ccc(O)cc2)C(=O)N(C)[C@@H](C)C(=O)N[C@@H](CC(N)=O)C(=O)N2CCC[C@H]2C(=O)N[C@@H](Cc2c[nH]cn2)C(=O)N[C@@H](CCC(=O)O)C(=O)N2C[C@H](O)C[C@H]2C(=O)N[C@@H](Cc2c[nH]c3ccccc23)C(=O)N[C@H](C)C(=O)N[C@@H](Cc2csc3ccccc23)C(=O)N1C [Example 5169] ({CH2CO}-Y[NMeA]NPHE[Hyp]W[dA][Bta][NMeNle][NMeNle]LCG-NH2; thioether N-14),8.00 to 9.00
8,CCCC[C@H]1C(=O)N(C)[C@@H](CCCC)C(=O)N[C@@H](CCC(=O)O)C(=O)N[C@H](C(=O)NCC(N)=O)CSCC(=O)N[C@@H](Cc2ccc(O)cc2)C(=O)N(C)[C@@H](C)C(=O)N[C@@H](CC(=O)O)C(=O)N2CCC[C@H]2C(=O)N[C@@H](CO)C(=O)N[C@@H](CCC(=O)O)C(=O)N2C[C@H](O)C[C@H]2C(=O)N[C@@H](Cc2c[nH]c3ccccc23)C(=O)N[C@@H](CCN)C(=O)N[C@@H](Cc2c[nH]c3ccccc23)C(=O)N1C [Example 5252] ({CH2CO}-Y[NMeA]DPSE[Hyp]W[Dab]W[NMeNle][NMeNle]ECG-NH2; thioether N-14),8.00 to 9.00
9,"COCC[C@H]1C(=O)N2C[C@@H](O)C[C@@H]2C(=O)N[C@@H](CC(=O)O)C(=O)N[C@@H](C(C)C)C(=O)N(C)[C@@H](Cc2ccccc2)C(=O)N[C@@H](Cc2ccc(O)cc2)C(=O)N2C[C@@H](O)C[C@@H]2C(=O)N[C@@H](Cc2c[nH]c3ccccc23)C(=O)N[C@@H](Cc2ccc(O)cc2)C(=O)N[C@@H](CCCN)C(=O)N[C@H](C(=O)NCC(N)=O)CSCC(=O)N[C@@H](Cc2ccc(F)c(F)c2)C(=O)N(C)[C@@H](Cc2ccccc2)C(=O)N1C [Example 9237] ({CH2CO}-[Phe(3,4-F2)][NMeF][NMehSer](Me)[dHyp]DV[NMeF]Y[dHyp]WY[Orn]CG-NH2; thioether N-13)",8.00 to 9.00

# More lines, now with the values ahead:
row,pIC50,SMILES
1,8.00 to 9.00,"COCC[C@H]1C(=O)N2C[C@@H](O)C[C@@H]2C(=O)N[C@@H](CC(=O)O)C(=O)N[C@@H](C(C)C)C(=O)N(C)[C@H](Cc2ccccc2)C(=O)N[C@@H](Cc2ccc(O)cc2)C(=O)N2C[C@@H](O)C[C@@H]2C(=O)N[C@@H](Cc2c[nH]c3ccccc23)C(=O)N[C@@H](Cc2ccc(O)cc2)C(=O)N[C@@H](CCCN)C(=O)N[C@H](C(=O)NCC(N)=O)CSCC(=O)N[C@@H](Cc2ccc(F)c(F)c2)C(=O)N(C)[C@@H](Cc2ccccc2)C(=O)N1C [Example 9238] ({CH2CO}-[Phe(3,4-F2)][NMeF][NMehSer](Me)[dHyp]DV[dNMeF]Y[dHyp]WY[Orn]CG-NH2; thioether N-13)"
2,7.00 to 8.00,"CCCC[C@H]1C(=O)N2C[C@H](O)C[C@@H]2C(=O)N[C@@H](CC(=O)O)C(=O)N[C@@H](C(C)C)C(=O)N(C)[C@@H](Cc2ccccc2)C(=O)N[C@@H](Cc2ccc(O)cc2)C(=O)N2CCOC[C@@H]2C(=O)N[C@@H](Cc2c[nH]c3ccccc23)C(=O)N[C@@H](Cc2ccc(O)cc2)C(=O)N[C@@H](CC(C)C)C(=O)N[C@H](C(=O)NCC(N)=O)CSCC(=O)N[C@@H](Cc2cc(F)c(F)c(F)c2)C(=O)N(C)[C@@H](CCC(=O)O)C(=O)N1C [Example 10177] ({CH2CO}-[Phe(3,4,5-F3)][NMeE][NMeNle][d(cisHyp)]DV[NMeF]Y[X1]WYLCG-NH2; thioether N-13)"
3,5.00 to 6.00,CCCC[C@H]1C(=O)N2CCC[C@@H]2C(=O)N[C@@H](CC(=O)O)C(=O)N[C@@H](C(C)C)C(=O)N(C)[C@@H](CC(C)C)C(=O)N[C@@H](CCC(N)=O)C(=O)N2CCCC[C@@H]2C(=O)N[C@@H](Cc2c[nH]c3ccccc23)C(=O)N[C@@H](Cc2ccc(O)cc2)C(=O)N[C@@H](CCCN)C(=O)N[C@H](C(=O)NCC(N)=O)CSCC(=O)N[C@@H](Cc2ccc(F)cc2)C(=O)N(C)[C@@H](Cc2ccccc2)C(=O)N1C [Example 9256] ({CH2CO}-[Phe(4-F)][NMeF][NMeNle][dP]DV[NMeL]Q[dPip]WY[Orn]CG-NH2; thioether N-13)
4,8.00 to 9.00,"CCCC[C@H]1C(=O)N2C[C@H](O)C[C@@H]2C(=O)N[C@@H](CC(=O)O)C(=O)N[C@@H](C(C)C)C(=O)N(C)[C@@H](Cc2ccccc2)C(=O)N[C@@H](CCC(=O)O)C(=O)N2CCOC[C@@H]2C(=O)N[C@@H](Cc2c[nH]c3ccccc23)C(=O)N[C@@H](Cc2ccc(O)cc2)C(=O)N[C@@H](CC(N)=O)C(=O)N[C@H](C(=O)NCC(N)=O)CSCC(=O)N[C@@H](Cc2cc(F)c(F)c(F)c2)C(=O)N(C)[C@@H](Cc2ccc(F)cc2)C(=O)N1C [Example 10591] ({CH2CO}-[Phe(3,4,5-F3)][NMePhe(4-F)][NMeNle][d(cisHyp)]DV[NMeF]E[X1]WYNCG-NH2; thioether N-13)"
5,8.00 to 9.00,"CCCC[C@H]1C(=O)N2C[C@H](O)C[C@@H]2C(=O)N[C@@H](CC(=O)O)C(=O)N[C@@H](C(C)C)C(=O)N(C)[C@@H](Cc2ccccc2)C(=O)N[C@@H](CC(=O)O)C(=O)N2CCOC[C@@H]2C(=O)N[C@@H](Cc2c[nH]c3ccccc23)C(=O)N[C@@H](Cc2ccc(O)cc2)C(=O)N[C@@H](CCOC)C(=O)N[C@H](C(=O)NCC(N)=O)CSCC(=O)N[C@@H](Cc2cc(F)c(F)c(F)c2)C(=O)N(C)[C@@H](Cc2ccccc2)C(=O)N1C [Example 10161] ({CH2CO}-[Phe(3,4,5-F3)][NMeF][NMeNle][d(cisHyp)]DV[NMeF]D[X1]WY[hSer](Me)CG-NH2; thioether N-13)"
6,8.00 to 9.00,"CCCC[C@H]1C(=O)N2C[C@@H](O)C[C@@H]2C(=O)N[C@@H](CC(=O)O)C(=O)N[C@@H](C(C)C)C(=O)N(C)[C@@H](Cc2ccccc2)C(=O)N[C@@H](CCC(=O)O)C(=O)N2CCCC[C@@H]2C(=O)N[C@@H](Cc2c[nH]c3ccccc23)C(=O)N[C@@H](Cc2ccc(O)cc2)C(=O)N[C@@H](CC(N)=O)C(=O)N[C@H](C(=O)NCC(N)=O)CSCC(=O)N[C@@H](Cc2cc(F)c(F)c(F)c2)C(=O)N(C)[C@@H](Cc2ccc(F)cc2)C(=O)N1C [Example 10558] ({CH2CO}-[Phe(3,4,5-F3)][NMePhe(4-F)][NMeNle][dHyp]DV[NMeF]E[dPip]WYNCG-NH2; thioether N-13)"
